Experimental data from US20090170812A1, “Transcription factor modulating compounds and methods of use thereof” (priority 2006, published 2009).

Key:
[1] = molecular target: T1, ExsA (Pseudomonas aeruginosa, UniProt P26993); assay: In vitro activity of Mar inhibitors against ExsA: cell-free DNA binding assay; settings: purified ExsA from P. aeruginosa, inhibition of DNA binding in vitro
T1 construct: made in house
T1 sequence (P26993 1-278): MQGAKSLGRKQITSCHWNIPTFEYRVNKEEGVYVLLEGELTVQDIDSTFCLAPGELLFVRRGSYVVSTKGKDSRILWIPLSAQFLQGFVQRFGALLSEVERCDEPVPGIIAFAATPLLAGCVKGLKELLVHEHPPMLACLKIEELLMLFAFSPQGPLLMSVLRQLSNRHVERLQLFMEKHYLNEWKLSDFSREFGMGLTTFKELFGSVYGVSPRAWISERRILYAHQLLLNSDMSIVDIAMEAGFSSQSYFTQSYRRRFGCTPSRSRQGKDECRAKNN

[2] = test system: P. aeruginosa; assay: Whole cell assay: cytotoxicity of P. aeruginosa toward J774 cells (CytoTox 96, LDH release); settings: percent cytotoxicity of treated P. aeruginosa toward J774 cells
[3] = molecular target: LcrF (VirF) (Yersinia pestis, UniProt P28808); assay: biochemical; format: binding, Y. pseudotuberculosis
Chain of LcrF (VirF) (P28808 whole entry, looked up): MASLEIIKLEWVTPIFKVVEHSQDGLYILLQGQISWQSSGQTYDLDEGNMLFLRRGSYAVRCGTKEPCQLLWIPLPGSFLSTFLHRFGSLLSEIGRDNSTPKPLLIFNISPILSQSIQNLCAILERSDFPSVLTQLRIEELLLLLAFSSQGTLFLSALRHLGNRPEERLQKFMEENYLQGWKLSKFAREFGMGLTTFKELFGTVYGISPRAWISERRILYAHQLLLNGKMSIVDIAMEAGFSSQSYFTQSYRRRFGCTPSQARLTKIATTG

[4] = test system: Yersinia pseudotuberculosis

Structure (SMILES): O=C(/C=C/c1ccc(-n2cncn2)cc1)Nc1ccc(-c2nc3ccc([N+](=O)[O-])cc3n2O)cc1 [Compound BI, (E)-N-[4-(1-Hydroxy-6-nitro-1H-benzoimidazol-2-yl)-phenyl]-3-(4-[1,2,4]triazol-1-yl-phenyl)-acrylamide]
- EC50 [1]: < 10 µM
- Cytotoxicity at 50 μg/mL Pseudomonas [2]: ** (cytotoxicities below 75% at 50 mg/mL)
- EC50 [3]: > 25.1 µM
- Cytotoxicity at 50 μg/mL Yersinia [4]: ** (key: *: percent cytotoxicity above 75% at 50 μg/mL; **: cytotoxicities below 75% at 50 μg/mL)

Structure (SMILES): CCOc1cc2nc(-c3ccc(NC(=O)/C=C/c4ccc(F)cc4)cc3)n(O)c2cc1[N+](=O)[O-] [Compound BJ, (E)-N-[4-(5-Ethoxy-1-hydroxy-6-nitro-1H-benzoimidazol-2-yl)-phenyl]-3-(4-fluoro-phenyl)-acrylamide]
- EC50 [1]: < 10 µM
- Cytotoxicity at 50 μg/mL Pseudomonas [2]: ** (cytotoxicities below 75% at 50 mg/mL)
- EC50 [3]: 10.1 to 25 µM
- Cytotoxicity at 50 μg/mL Yersinia [4]: ** (key: *: percent cytotoxicity above 75% at 50 μg/mL; **: cytotoxicities below 75% at 50 μg/mL)

Structure (SMILES): Cc1cc2nc(-c3ccc(NC(=O)c4ccc(-c5cnco5)cc4)cc3)n(O)c2cc1[N+](=O)[O-] [Compound BL, N-[4-(1-Hydroxy-5-methyl-6-nitro-1H-benzoimidazol-2-yl)-phenyl]-4-oxazol-5-yl-benzamide]
- EC50 [1]: < 10 µM
- Cytotoxicity at 50 μg/mL Pseudomonas [2]: ** (cytotoxicities below 75% at 50 mg/mL)
- EC50 [3]: > 25.1 µM
- Cytotoxicity at 50 μg/mL Yersinia [4]: ** (key: *: percent cytotoxicity above 75% at 50 μg/mL; **: cytotoxicities below 75% at 50 μg/mL)

Structure (SMILES): CN(C)c1cc2nc(-c3ccc(NC(=O)/C=C/c4ccc(F)cc4)cc3)n(O)c2cc1[N+](=O)[O-] [Compound BN, N-[4-(5-Dimethylamino-1-hydroxy-6-nitro-1H-benzoimidazol-2-yl)-phenyl]-3-(4-fluorocinnamyl)-amide]
- EC50 [1]: 10.1 to 25 µM
- Cytotoxicity at 50 μg/mL Pseudomonas [2]: ** (cytotoxicities below 75% at 50 mg/mL)
- EC50 [3]: > 25.1 µM
- Cytotoxicity at 50 μg/mL Yersinia [4]: ** (key: *: percent cytotoxicity above 75% at 50 μg/mL; **: cytotoxicities below 75% at 50 μg/mL)

Structure (SMILES): N#Cc1ccc2nc(-c3ccc(NC(=O)/C=C/c4ccc(F)cc4)cc3)n(O)c2c1 [Compound B]
- EC50 [1]: < 10 µM
- Cytotoxicity at 50 μg/mL Pseudomonas [2]: ** (cytotoxicities below 75% at 50 mg/mL)
- EC50 [3]: < 10 µM
- Cytotoxicity at 50 μg/mL Yersinia [4]: ** (key: *: percent cytotoxicity above 75% at 50 μg/mL; **: cytotoxicities below 75% at 50 μg/mL)

Structure (SMILES): CC(=O)c1ccc(C(=O)Nc2ccc(-c3nc4ccc(C#N)cc4n3O)cc2)cc1 [Compound C]
- EC50 [1]: < 10 µM
- Cytotoxicity at 50 μg/mL Pseudomonas [2]: ** (cytotoxicities below 75% at 50 mg/mL)
- EC50 [3]: > 25.1 µM
- Cytotoxicity at 50 μg/mL Yersinia [4]: ** (key: *: percent cytotoxicity above 75% at 50 μg/mL; **: cytotoxicities below 75% at 50 μg/mL)

Structure (SMILES): N#Cc1ccc(C(=O)Nc2ccc(-c3nc4ccc(C#N)cc4n3O)cc2)cc1 [D]
- EC50 [1]: < 10 µM
- Cytotoxicity at 50 μg/mL Pseudomonas [2]: * (percent cytotoxicities above 75% at 50 mg/mL)
- EC50 [3]: < 10 µM
- Cytotoxicity at 50 μg/mL Yersinia [4]: ** (key: *: percent cytotoxicity above 75% at 50 μg/mL; **: cytotoxicities below 75% at 50 μg/mL)

Structure (SMILES): Cc1ccc(/C=C/C(=O)Nc2ccc(-c3nc4ccc(C#N)cc4n3O)cc2)cc1 [E]
- EC50 [1]: < 10 µM
- Cytotoxicity at 50 μg/mL Pseudomonas [2]: * (percent cytotoxicities above 75% at 50 mg/mL)
- EC50 [3]: 10.1 to 25 µM
- Cytotoxicity at 50 μg/mL Yersinia [4]: ** (key: *: percent cytotoxicity above 75% at 50 μg/mL; **: cytotoxicities below 75% at 50 μg/mL)

Structure (SMILES): O=C(Nc1ccc(-c2nc3ccc([N+](=O)[O-])cc3n2O)cc1)/C(=C/c1ccccc1)c1ccccc1 [F]
- EC50 [1]: 10.1 to 25 µM
- Cytotoxicity at 50 μg/mL Pseudomonas [2]: ** (cytotoxicities below 75% at 50 mg/mL)
- EC50 [3]: < 10 µM
- Cytotoxicity at 50 μg/mL Yersinia [4]: * (key: *: percent cytotoxicity above 75% at 50 μg/mL; **: cytotoxicities below 75% at 50 μg/mL)

Structure (SMILES): O=C(Nc1ccc(-c2nc3ccc([N+](=O)[O-])cc3n2O)cc1)/C(F)=C/c1ccccc1 [G]
- EC50 [1]: < 10 µM
- Cytotoxicity at 50 μg/mL Pseudomonas [2]: ** (cytotoxicities below 75% at 50 mg/mL)
- EC50 [3]: 10.1 to 25 µM
- Cytotoxicity at 50 μg/mL Yersinia [4]: * (key: *: percent cytotoxicity above 75% at 50 μg/mL; **: cytotoxicities below 75% at 50 μg/mL)

Structure (SMILES): COc1ccc(/C=C/C(=O)Nc2ccc(-c3nc4ccc([N+](=O)[O-])cc4n3O)cc2)c(OC)c1 [J]
- EC50 [1]: < 10 µM
- Cytotoxicity at 50 μg/mL Pseudomonas [2]: * (percent cytotoxicities above 75% at 50 mg/mL)
- EC50 [3]: > 25.1 µM
- Cytotoxicity at 50 μg/mL Yersinia [4]: ** (key: *: percent cytotoxicity above 75% at 50 μg/mL; **: cytotoxicities below 75% at 50 μg/mL)

Structure (SMILES): N#Cc1ccc2nc(-c3ccc(NC(=O)c4ccc(F)cc4)cc3)n(O)c2c1 [K]
- EC50 [1]: 10.1 to 25 µM
- Cytotoxicity at 50 μg/mL Pseudomonas [2]: * (percent cytotoxicities above 75% at 50 mg/mL)
- EC50 [3]: > 25.1 µM
- Cytotoxicity at 50 μg/mL Yersinia [4]: * (key: *: percent cytotoxicity above 75% at 50 μg/mL; **: cytotoxicities below 75% at 50 μg/mL)

Structure (SMILES): O=C(Nc1ccc(-c2nc3ccc([N+](=O)[O-])cc3n2O)cc1)c1ccc(F)c(F)c1 [P]
- EC50 [1]: 10.1 to 25 µM
- Cytotoxicity at 50 μg/mL Pseudomonas [2]: * (percent cytotoxicities above 75% at 50 mg/mL)
- EC50 [3]: 10.1 to 25 µM
- Cytotoxicity at 50 μg/mL Yersinia [4]: * (key: *: percent cytotoxicity above 75% at 50 μg/mL; **: cytotoxicities below 75% at 50 μg/mL)

Structure (SMILES): O=C(Nc1ccc(-c2nc3ccc([N+](=O)[O-])cc3n2O)cc1)c1ccc(-c2cncnc2)cc1 [R]
- EC50 [1]: 10.1 to 25 µM
- Cytotoxicity at 50 μg/mL Pseudomonas [2]: * (percent cytotoxicities above 75% at 50 mg/mL)
- EC50 [3]: > 25.1 µM
- Cytotoxicity at 50 μg/mL Yersinia [4]: ** (key: *: percent cytotoxicity above 75% at 50 μg/mL; **: cytotoxicities below 75% at 50 μg/mL)

Structure (SMILES): Cc1cc(C(=O)Nc2ccc(-c3nc4ccc([N+](=O)[O-])cc4n3O)cc2)ccc1F [S]
- EC50 [1]: 10.1 to 25 µM
- Cytotoxicity at 50 μg/mL Pseudomonas [2]: * (percent cytotoxicities above 75% at 50 mg/mL)
- EC50 [3]: 10.1 to 25 µM
- Cytotoxicity at 50 μg/mL Yersinia [4]: * (key: *: percent cytotoxicity above 75% at 50 μg/mL; **: cytotoxicities below 75% at 50 μg/mL)

Structure (SMILES): COc1cc(F)ccc1C(=O)Nc1ccc(-c2nc3ccc([N+](=O)[O-])cc3n2O)cc1 [T]
- EC50 [1]: < 10 µM
- Cytotoxicity at 50 μg/mL Pseudomonas [2]: * (percent cytotoxicities above 75% at 50 mg/mL)
- EC50 [3]: < 10 µM
- Cytotoxicity at 50 μg/mL Yersinia [4]: ** (key: *: percent cytotoxicity above 75% at 50 μg/mL; **: cytotoxicities below 75% at 50 μg/mL)

Structure (SMILES): O=C(Nc1ccc(-c2nc3ncc([N+](=O)[O-])cc3n2O)cc1)c1ccc(F)cc1 [X]
- EC50 [1]: 10.1 to 25 µM
- Cytotoxicity at 50 μg/mL Pseudomonas [2]: * (percent cytotoxicities above 75% at 50 mg/mL)
- EC50 [3]: 10.1 to 25 µM
- Cytotoxicity at 50 μg/mL Yersinia [4]: * (key: *: percent cytotoxicity above 75% at 50 μg/mL; **: cytotoxicities below 75% at 50 μg/mL)

Structure (SMILES): CC(=O)c1ccc(C(=O)Nc2ccc(-c3nc4ncc([N+](=O)[O-])cc4n3O)cc2)cc1 [Y]
- EC50 [1]: < 10 µM
- Cytotoxicity at 50 μg/mL Pseudomonas [2]: * (percent cytotoxicities above 75% at 50 mg/mL)
- EC50 [3]: 10.1 to 25 µM
- Cytotoxicity at 50 μg/mL Yersinia [4]: * (key: *: percent cytotoxicity above 75% at 50 μg/mL; **: cytotoxicities below 75% at 50 μg/mL)
